Where “and” joins values, the source holds several entries; their conditions need not be identical. Equal values may be shown once. Read-outs that look alike come from different tables or passages of the source.
What was measured:
PARG = conditions: cited from earlier work
[1] = Sulforhodamine B (SRB) cytotoxicity assay; format: cell-based, human; conditions: human, MRC-5 cells
Protocol: (§1) Fig. 6 Selective inhibition of PARG by xanthine derivative JA2131. a Clonogenic survival assays of PC3, MDA-MB-231, and MCF-7 cells treated with PARGi. Cells were treated with either DMSO or 10 µM JA2131 for 2 h, irradiated with 3 Gy (MDA-MB-231 and MCF-7), 7 Gy (PC3) IR and grown for ~2 weeks, then colonies were fixed with methanol and stained with crystal violet. The results of three independent experiments are shown. Error bars = the standard error of the mean (SEM). b dose-response of JA2131 in MDA-MB-231 cells with and without IR. Cells were treated with designated concentrations of JA2131 for 2 h and then either left untreated or exposed to 3 Gy IR and allowed to recover for 1 h before lysis. Total protein was immunoblotted with anti-PAR antibody (upper panel), stripped and reprobed with anti-PCNA as a loading control. c MDA-MB-231 cells with stable scrambled shRNA (WT) or stable PARG shRNA, knockdown (KD), were treated with 5 μM JA2131 for 2 h, lysed and then total lysates were immunoblotted for anti-PAR (upper panel) followed by anti-PARG (upper middle panel), anti-PARP1 (lower middle panel) and anti-actin (bottom panel) antibody. […] Stable cells with scramble shRNA (control) and shPARG (PARG-KD) cells were treated with an increasing concentration of JA2131 for growth inhibitory IC50 determination. The data was normalized against 100% survival at the lowest inhibitor concentration. Error bars show the percent coefficient of variation. Equivalent concentrations of DMSO were used as a negative control. e The cytotoxicity of JA2131 along with PDD, Veliparib and Doxorubicin against MRC-5 cells. Error bars show the percent coefficient of variation. f CETSA for in-cell JA2131 target engagement. Normalized anti-PARG western blot intensities of three independent experiments were fitted as above and the estimated aggregation temperature (Tagg) is shown in the tabulated insert. Source Data are provided as a Source Data file.

MRC-5 cells = test: Sulforhodamine B (SRB) cytotoxicity assay; format: cell-based, human; conditions: Homo sapiens, MRC5, 72 h
Protocol: as §1

[2] = Sulforhodamine B (SRB) cytotoxicity assay; conditions: human, PC3 cells, Viability; for viability at 72 h, 1.95 µM: log [concentration] μM 0.290702; for viability at 72 h, 3.91 µM: log [concentration] μM 0.591732; for viability at 72 h, 7.81 µM: log [concentration] μM 0.892818; for viability at 72 h, 15.63 µM: log [concentration] μM 1.19382; for viability at 72 h, 31.25 µM: log [concentration] μM 1.49485; for viability at 72 h, 62.5 µM: log [concentration] μM 1.79588; for viability at 72 h, 125 µM: log [concentration] μM 2.09691; for viability at 72 h, 250 µM: log [concentration] μM 2.39794; for viability at 72 h, 500 µM: log [concentration] μM 2.69897; for viability at 72 h, 1000 µM: log [concentration] μM 3; for viability at 72 h, 2000 µM: log [concentration] μM 3.30103
PC3 cells [3] = test: Sulforhodamine B (SRB) cytotoxicity assay; conditions: Homo sapiens, PC-3, 72 h, without IR
MCF-7 cells = test: Clonogenic survival assay; format: cell-based, human
Protocol: as §1
(§2) PC3, MDA-MB-231 cells were maintained in RPMI 1640, MCF-7 cells in Eagle’s Minimum Essential Medium (EMEM), MRC-5 cells in Eagle’s Minimum Essential Medium and Hela and U2OS cells in Dulbecco’s modified Eagle’s high glucose medium (DMEM) supplemented with 10% (vol/vol) fetal bovine serum (FBS) and 1% antibiotic/antimycotic (Lonza) in a humidified incubator with 10% CO2. All cell lines were purchased from ATCC and regularly checked for mycoplasma and cell authentication. SUM 149PT cells were cultured in F-12 Hams (Gibco) supplemented with 5% fetal bovine serum, insulin, and hydrocortisone. Colony formation assays were carried out in 6-well plates, 500 cells were used per well and following designated treatment, and colonies were grown for 2 weeks. Cells were fixed with methanol (100%), stained with crystal violet and analyzed using a GelCount instrument (Oxford Optronix Ltd). Crystal Violet C6158 was purchased from Sigma. PARG knockdown cells were generated by infecting MDA-MB-231 cells with shPARG lentiviral particles (sc-106355-V, Santa Cruz Biotechnology), which contain a pool of three shRNA plasmids. After 24 h infection, 3 µg/ml puromycin (Invitrogen) was added and antibiotic-resistant cells were further expanded and used for experimentation. Sequence-1; hairpin sequence: […], sense: […]tt, Antisense: […]tt. Sequence-2; hairpin sequence, […]-[…], sense: […]tt, antisense: […]tt. Sequence-3; hairpin sequence: […]-[…], sense: […]tt, antisense: […]-GGUUUCCtt. Control cells were generated using the same process except that scramble lentiviral particles with scrambled sequences were used (sc-108080).
(§3) Supplementary Fig. 8: Clonogenic survival of cells in the presence of PARGi and PARPi (a)
(§4) Clonogenic survival of PC3 cells in response to indicated compounds. ( b) Clonogenic survival of
(§5) MDA-MB-231 cells in response to i ndicated compounds. (c) Clonogenic survival of MCF -7 cells
(§6) in response to indicated compounds. […]

MDA-MB-231 cells = test: Clonogenic survival assay; format: cell-based, human; conditions: MDA-MB-231
Protocol: as §1, §2, §3, §4, §5, §6

PC3 cells [4] = test: Clonogenic survival assay; format: cell-based, human; conditions: PC3
Protocol: as §1, §2, §3, §4, §5, §6

## Nc1ncnc2c1ncn2[C@@H]1O[C@H](CO[P@](=O)(O)O[P@@](=O)(O)OC[C@H]2NC[C@H](O)[C@@H]2O)[C@@H](O)[C@H]1O [ADP-HPD, adenosine diphosphate (hydroxymethyl)pyrrolidinediol, reference compound]
PARG; read-out: IC50, published values
  IC50: 100 to 1400 nM

## COc1cccc2c1C(=O)c1c(O)c3c(c(O)c1C2=O)C[C@@](O)(C(=O)CO)C[C@@H]3O[C@H]1C[C@H](N)[C@H](O)[C@H](C)O1 [Doxorubicin]
[1]; log [concentration] μM 0.19
  viability at 72 h, 1.55 µM: 50.4%
[1]; log [concentration] μM 0.49
  viability at 72 h, 3.09 µM: 47.4%
[1]; log [concentration] μM 0.8
  viability at 72 h, 6.31 µM: 50%
[1]; log [concentration] μM 1.1
  viability at 72 h, 12.6 µM: 50%
[1]; log [concentration] μM 1.4
  viability at 72 h, 25.1 µM: 45.6%
[1]; log [concentration] μM -0.11
  viability at 72 h, 0.776 µM: 71.7%
[1]; log [concentration] μM -0.41
  viability at 72 h, 0.389 µM: 96.5%
[1]; log [concentration] μM -0.71
  viability at 72 h, 0.195 µM: 100%
MRC-5 cells
  IC50: 741 ± 100 nM
[2]; without IR, log [concentration] μM 0.194
  viability at 72 h, 1.56 µM: 17.2%
[2]; without IR, log [concentration] μM 0.495
  viability at 72 h, 3.13 µM: 11.1%
[2]; without IR, log [concentration] μM 0.796
  viability at 72 h, 6.25 µM: 10.1%
[2]; without IR, log [concentration] μM 1.097
  viability at 72 h, 12.5 µM: 9.95%
[2]; without IR, log [concentration] μM 1.398
  viability at 72 h, 25 µM: 9.74%
[2]; without IR, log [concentration] μM 1.699
  viability at 72 h, 50 µM: 9.95%
[2]; without IR, log [concentration] μM 2
  viability at 72 h, 100 µM: 10.6%
[2]; without IR, log [concentration] μM 2.301
  viability at 72 h, 200 µM: 13.8%
[2]; without IR, log [concentration] μM -0.107
  viability at 72 h, 0.78 µM: 58.5%
[2]; without IR, log [concentration] μM -0.408
  viability at 72 h, 0.39 µM: 95%
[2]; without IR, log [concentration] μM -1.009
  viability at 72 h, 0.098 µM: 100%
PC3 cells [3]
  IC50: 810 ± 300 nM

## O=C(OC[C@H]1O[C@@H](OC(=O)c2cc(O)c(O)c(OC(=O)c3cc(O)c(O)c(O)c3)c2)[C@H](OC(=O)c2cc(O)c(O)c(OC(=O)c3cc(O)c(O)c(O)c3)c2)[C@@H](OC(=O)c2cc(O)c(O)c(OC(=O)c3cc(O)c(O)c(O)c3)c2)[C@@H]1OC(=O)c1cc(O)c(O)c(OC(=O)c2cc(O)c(O)c(O)c2)c1)c1cc(O)c(O)c(OC(=O)c2cc(O)c(O)c(O)c2)c1 [Gallotannin]
PARG; read-out: IC50
  IC50: < 5000 nM

## O=C(c1cc(Cc2n[nH]c(=O)c3ccccc23)ccc1F)N1CCN(C(=O)C2CC2)CC1 [Olaparib, reference compound]
MCF-7 cells; Experiment-1, replicates 1-6
  colony count (clonogenic survival, raw replicate data, Supplementary Figure 8): 14 and 16 and 15 and 5 and 13 and 26
MCF-7 cells; Experiment-2, replicates 1-6
  colony count (clonogenic survival, raw replicate data, Supplementary Figure 8): 25 and 5 (2×) and 4 and 1 and 2
MCF-7 cells; Experiment-3, replicates 1-6
  colony count (clonogenic survival, raw replicate data, Supplementary Figure 8): 18 (2×) and 15 and 17 and 16 and 5
MDA-MB-231 cells; Experiment-1, replicates 1-6
  colony count (clonogenic survival, raw replicate data, Supplementary Figure 8): 0 and 1 (2×) and 2 (2×) and 3
MDA-MB-231 cells; Experiment-2, replicates 1-6
  colony count (clonogenic survival, raw replicate data, Supplementary Figure 8): 1 (3×) and 2 (2×) and 3
MDA-MB-231 cells; Experiment-3, replicates 1-6
  colony count (clonogenic survival, raw replicate data, Supplementary Figure 8): 2 and 1 (3×) and 4 and 3
PC3 cells [4]; Experiment-1, replicates 1-6
  colony count (clonogenic survival, raw replicate data, Supplementary Figure 8): 5 and 10 and 21 and 13 and 39 and 16
PC3 cells [4]; Experiment-2, replicates 1-6
  colony count (clonogenic survival, raw replicate data, Supplementary Figure 8): 6 (3×) and 1 and 0 and 11
PC3 cells [4]; Experiment-3, replicates 1-6
  colony count (clonogenic survival, raw replicate data, Supplementary Figure 8): 0 (2×) and 3 (3×) and 1
[2]; +IR 7.0 Gy
  viability at 72 h, 1.95 µM: 100%
  viability at 72 h, 3.91 µM: 101%
  viability at 72 h, 7.81 µM: 101%
  viability at 72 h, 15.63 µM: 99.1%
  viability at 72 h, 31.25 µM: 79.9%
  viability at 72 h, 62.5 µM: 52.4%
  viability at 72 h, 125 µM: 32.6%
  viability at 72 h, 250 µM: 16.5%
  viability at 72 h, 500 µM: 11.1%
  viability at 72 h, 1000 µM: 11.4%
  viability at 72 h, 2000 µM: 10.8%
[2]; -IR
  viability at 72 h, 1.95 µM: 100%
  viability at 72 h, 3.91 µM: 102%
  viability at 72 h, 7.81 µM: 94.4%
  viability at 72 h, 15.63 µM: 77.7%
  viability at 72 h, 31.25 µM: 53.3%
  viability at 72 h, 62.5 µM: 34.7%
  viability at 72 h, 125 µM: 20.2%
  viability at 72 h, 250 µM: 9.43%
  viability at 72 h, 500 µM: 5.75%
  viability at 72 h, 1000 µM: 6.34%
  viability at 72 h, 2000 µM: 6.26%
